In test [1] the test system is peritoneal macrophage phagocytosis. The test can be described thus: Peritoneal macrophage phagocytosis in mice (India ink clearance, cyclophosphamide). It is filed as in vivo. Conditions: 0.03 g/kg gastric infusion 7 days; cyclophosphamide-treated mice.
For test [2], the system named is antibody level of hemolysin. As to the kind of experiment: Circulating antibody level test on sheep red blood cells (cyclophosphamide immunodeficient mice). It counts as in vivo. Conditions: 0.03 g/kg gastric infusion 7 days; cyclophosphamide-treated mice; OD 540 nm. As to the method: The anti-inflammatory effects of the extract compositions AB and ABC were determined for a series of treatment groups through the circulating antibody level test on sheep red blood cells.
Mice weighing 20-25 g were used in this study. Each group comprised an equal number of male and female animals. Rearing temperature was 23±2° C. The mice were divided into nine groups with 10 rats each: (1) blank control, (2) model control, (3) AB high dosage (15 g/kg), (4) AB mid dosage (7.5 g/kg), (5) AB low dosage (3.75 g/kg), (6) ABC high dosage (13.0 g/kg), (7) ABC mid dosage (7.66 g/kg), (8) ABC low dosage (3.83 g/kg), and (9) levamisole (0.03 g/kg).
The treatments of placebo and extract compositions were administered to each of the mice by gastric infusion for a period of 7 days. On the 2nd, 4th, and 6th day, each mouse, with the exception of those in the blank control group, was injected intraperitoneally with 50 mg/10 ml/kg of cyclophosphamide. Mice in the blank control group were injected intraperitoneally with saline of the same volume. Three days following administration of the final treatment (on day 7), all mice were each immunized by intraperitoneal injections of 0.2 ml of sheep erythrocyte suspension (5% of sheep erythrocyte in saline). […] The absorbance for each supernatant sample was recorded as an index of serum hemolytic level. […]

Test [3] concerns type 1 FM1 influenza virus. The test can be described thus: Inhibition of the FM1 influenza virus in mice (lung index). It counts as in vivo, NIH mice.
Test [4] concerns permeability of the intraperitoneal blood capillary. The test can be described thus: Anti-inflammatory effect: permeability of the intraperitoneal blood capillary (acetic acid, Evans blue). It counts as in vivo, NIH mice. Conditions: 0.15 g/kg intragastric once a day, 3 days; acetic acid i.p.; OD 570 nm. As to the method: The anti-inflammatory effects of the extract compositions AB and ABC were determined for a series of treatment groups through measurement of the permeability of the intraperitoneal blood capillary.
NIH mice, weighing 20±2 g, were used in this experiment. […] The rearing temperature was 23±2° C. The mice were randomly divided into nine groups with 10 mice in each group: (1) blank control, (2) model control, (3) AB high dosage (15 g/kg), (4) AB mid dosage (7.5 g/kg), (5) AB low dosage (3.75 g/kg), (6) ABC high dosage (13.0 g/kg), (7) ABC mid dosage (7.66 g/kg), (8) ABC low dosage (3.83 g/kg), and (9) sodium salicylate group (0.15 g/kg).
An acetic normal saline solution was prepared by dissolving about a 0.4% of glacial acetic acid in 50 ml of a normal saline solution.
A 2% Evans blue normal saline solution was prepared by dissolving 2 g of Evans blue in 100 ml of normal saline solution. […]
About twenty minutes following the receipt of the saline injections, each mouse was sacrificed by breaking its cervical vertebrae. […] The supernatant was then collected and the absorbance or optical density (OD) of the supernatant was measured at 570 nm using a spectrophotometer. The experimental data was analyzed. Data was assessed using the t-test to determine statistically significant differences between the results of each of the groups. […]

Test [5] concerns foot swelling induced by carrageenan. The test can be described thus: Rat foot swelling induced by carrageenan. It is filed as in vivo, Rats. Conditions: 0.15 g/kg oral once a day, 4 days. As to the method:
The anti-inflammatory effects of the extract compositions AB and ABC were determined for a series of treatment groups through measurement of the foot swelling of rat paws following the administration of carrageenan.
Rats weighing 200±20 g were used in this experiment. Each test group comprised the same number of male and female animals. Rearing temperature was 23±2° C. The rats were divided into eight groups with 10 rats each: (1) model control, (2) AB high dosage (15 g/kg), (3) AB mid dosage (7.5 g/kg), (4) AB low dosage (3.75 g/kg), (5) ABC high dosage (13.0 g/kg), (6) ABC mid dosage (7.66 g/kg), (7) ABC low dosage (3.83 g/kg), (8) sodium salicylate group (0.15 g/kg), […]. There was no blank control in this experiment as there is no swelling of an animal paws where carrageenan is not administered
The method for conducting this experiment followed the guidelines outlined in the Manual on Studies of New Medicines of TCM by the Drug Administration Ministry of Health P.R.C. The method outlined in the manual details the following steps:
1. Draw a clear transverse line situated on the upper and front angles of the left back paw of each rat with a ballpoint pen;
2. Measure the paw volume of each rat;
3. Subcutaneously inject each rat, except those in the blank control group, with a dose of carrageenan (0.05 ml/paw) into the metatarsus of the hindlimb;
4. Orally administer one of the treatments of the AB extract, ABC extract, or sodium salicylate as per the above-noted dosages once a day for a period of 4 days. Rats in the model control group and blank were injected with saline of the same volume;
5. On the morning of the 4th day, one hour following the last administration of the final treatment, subcutaneously inject carrageenan (0.05 ml/paw) into the metatarsus of hindlimb of each rat;
6. Measure the paw volume at each of 1 hour, 2 hours, 3 hours, and 4 hours following the second carrageenan administration; and
7. Calculate the paw swelling percentage for each rat.
The swelling percentage was calculated by the following formula: Swelling percentage=((swelling volumes of rat paw after inflammation−swelling volumes of rat paw before inflammation)/swelling volumes of rat paw before inflammation)×100%
The experimental data was analyzed using the t-test to determine statistically significant differences between the results of each of the groups. There was no swelling in the paws of rats in the blank control group. The anti-inflammatory effects of the AB and ABC herbal extract compositions and sodium salicylate were considered to be effective when P was less than 0.05.

Where [6] appears, read: […], 0.07 g/kg intragastric once a day, 3 days, day 4.

As for `c1ccc([C@H]2CN3CCSC3=N2)cc1` [Levamisole, levamisole], in test [1], the “Phagocytic coefficient (K)” value worked out at 0.046 ± 0.007 and the “Phagocytic coefficient index (α)” value is listed as 6.76 ± 0.43. The “OD value of hemolysin” value in test [2] is listed as 0.75 ± 0.006.

On to `NC(=O)c1ncn([C@@H]2O[C@H](CO)[C@@H](O)[C@H]2O)n1` [Ribavirin], for which, in test [3] (setting [6]), the “Lung Index” value is recorded as 1.19 ± 0.30 g/g and the Weight is on record as 14.94 ± 1.64 g. Besides, in test [3] (mouse, in vivo), the “The rate of inhibition of lung index” value turned out to be 32.38%.

Turning to `O=C([O-])c1ccccc1O.[Na+]` [Sodium salicylate, sodium salicylate], the “OD value of haemolysin in serum” value in test [4] is 0.305 ± 0.060. Besides, the Paw swelling in test [5] (1 h after carrageenan) was 0.490 ± 0.202 mL; in test [5] (2 h after carrageenan) it was 0.405 ± 0.195 mL; in test [5] (3 h after carrageenan), 0.265 ± 0.153 mL; in test [5] (4 h after carrageenan), 0.170 ± 0.136 mL.

The values are drawn from patent publication US9186385B2 (priority 2009, dated 2015).
